Data taken from ChEMBL document CHEMBL1137403, “Discovery of 2-[4-{{2-(2S,5R)-2-cyano-5-ethynyl-1-pyrrolidinyl]-2-oxoethyl]amino]- 4-methyl-1-piperidinyl]-4-pyridinecarboxylic acid (ABT-279): a very potent, selective, effective, and well-tolerated inhibitor of dipeptidyl peptidase-IV, useful for the treatment of diabetes” (J Med Chem, 2006).
pKi: −log10 of the molar value.

What was measured:
[1] = molecular target: Dipeptidyl peptidase 8 (Homo sapiens, UniProt Q6V1X1)
[2] = molecular target: Dipeptidyl peptidase 9 (Homo sapiens, UniProt Q86TI2)
Chain of Dipeptidyl peptidase 9 (Q86TI2 whole entry): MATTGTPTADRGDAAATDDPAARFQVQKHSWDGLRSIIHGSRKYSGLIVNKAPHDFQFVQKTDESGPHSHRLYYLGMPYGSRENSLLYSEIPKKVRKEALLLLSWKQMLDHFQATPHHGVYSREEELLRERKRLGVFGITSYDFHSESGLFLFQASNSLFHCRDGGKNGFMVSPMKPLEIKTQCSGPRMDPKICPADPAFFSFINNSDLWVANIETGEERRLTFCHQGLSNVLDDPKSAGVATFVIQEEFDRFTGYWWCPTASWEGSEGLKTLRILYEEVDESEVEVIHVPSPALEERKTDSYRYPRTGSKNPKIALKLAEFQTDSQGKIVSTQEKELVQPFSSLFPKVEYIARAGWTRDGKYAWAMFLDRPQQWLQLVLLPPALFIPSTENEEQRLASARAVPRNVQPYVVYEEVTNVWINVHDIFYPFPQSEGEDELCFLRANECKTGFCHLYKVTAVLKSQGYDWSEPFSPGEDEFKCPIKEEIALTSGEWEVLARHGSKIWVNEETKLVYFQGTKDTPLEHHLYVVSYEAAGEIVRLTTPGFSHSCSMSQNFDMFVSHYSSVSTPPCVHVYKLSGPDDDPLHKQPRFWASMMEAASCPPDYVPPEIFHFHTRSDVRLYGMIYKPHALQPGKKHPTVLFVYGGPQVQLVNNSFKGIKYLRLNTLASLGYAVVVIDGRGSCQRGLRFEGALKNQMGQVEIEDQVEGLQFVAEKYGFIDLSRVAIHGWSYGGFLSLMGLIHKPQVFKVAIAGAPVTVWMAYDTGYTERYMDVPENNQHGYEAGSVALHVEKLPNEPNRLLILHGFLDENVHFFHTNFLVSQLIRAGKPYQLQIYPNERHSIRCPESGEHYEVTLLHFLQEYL

[3] = molecular target: Dipeptidyl peptidase 2 (Homo sapiens, UniProt Q9UHL4); experiment: Inhibition of DPP7
[4] = molecular target: T1, Prolyl endopeptidase (Homo sapiens, UniProt P48147); experiment: Inhibition of POP
T1 sequence (P48147 whole entry): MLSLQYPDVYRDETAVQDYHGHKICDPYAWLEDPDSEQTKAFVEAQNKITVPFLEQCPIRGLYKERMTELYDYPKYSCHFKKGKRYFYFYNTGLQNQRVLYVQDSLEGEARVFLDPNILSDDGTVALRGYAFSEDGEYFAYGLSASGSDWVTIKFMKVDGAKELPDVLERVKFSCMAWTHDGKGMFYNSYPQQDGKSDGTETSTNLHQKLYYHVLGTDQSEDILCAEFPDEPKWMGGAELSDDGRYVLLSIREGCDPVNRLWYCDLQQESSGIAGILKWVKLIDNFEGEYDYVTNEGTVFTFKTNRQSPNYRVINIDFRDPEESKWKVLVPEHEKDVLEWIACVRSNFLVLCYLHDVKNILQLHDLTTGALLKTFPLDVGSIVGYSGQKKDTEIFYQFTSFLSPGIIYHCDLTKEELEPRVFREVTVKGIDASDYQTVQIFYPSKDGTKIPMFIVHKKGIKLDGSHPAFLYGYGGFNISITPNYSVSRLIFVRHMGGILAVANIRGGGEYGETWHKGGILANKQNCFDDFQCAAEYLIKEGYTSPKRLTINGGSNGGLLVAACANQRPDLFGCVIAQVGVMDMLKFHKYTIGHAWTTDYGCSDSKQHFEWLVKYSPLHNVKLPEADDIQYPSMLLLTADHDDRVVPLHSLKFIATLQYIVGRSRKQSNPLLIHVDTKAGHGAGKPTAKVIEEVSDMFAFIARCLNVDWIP

[5] = molecular target: T2, Prolyl endopeptidase FAP (Homo sapiens, UniProt Q12884); experiment: Inhibition of FAPalpha
T2 sequence (Q12884 whole entry): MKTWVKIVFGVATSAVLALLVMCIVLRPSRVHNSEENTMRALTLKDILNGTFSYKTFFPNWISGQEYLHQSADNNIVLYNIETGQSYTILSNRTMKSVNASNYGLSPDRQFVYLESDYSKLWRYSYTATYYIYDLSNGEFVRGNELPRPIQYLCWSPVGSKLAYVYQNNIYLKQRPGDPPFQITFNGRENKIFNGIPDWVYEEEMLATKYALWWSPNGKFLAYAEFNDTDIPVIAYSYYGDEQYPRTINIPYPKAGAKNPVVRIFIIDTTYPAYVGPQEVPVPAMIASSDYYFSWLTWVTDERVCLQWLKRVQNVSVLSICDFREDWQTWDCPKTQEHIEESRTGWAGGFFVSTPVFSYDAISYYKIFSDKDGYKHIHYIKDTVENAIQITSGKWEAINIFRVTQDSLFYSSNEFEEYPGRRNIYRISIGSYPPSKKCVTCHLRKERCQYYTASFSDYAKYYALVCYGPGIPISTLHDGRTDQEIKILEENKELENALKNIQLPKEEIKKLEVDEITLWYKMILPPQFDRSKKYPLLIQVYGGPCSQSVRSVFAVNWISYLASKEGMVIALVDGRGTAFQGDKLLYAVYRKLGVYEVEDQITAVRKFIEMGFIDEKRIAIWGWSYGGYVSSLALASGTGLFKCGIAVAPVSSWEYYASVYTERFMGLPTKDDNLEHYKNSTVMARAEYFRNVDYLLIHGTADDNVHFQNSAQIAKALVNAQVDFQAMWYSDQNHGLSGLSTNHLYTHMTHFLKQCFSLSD

Chain of Dipeptidyl peptidase 8 (Q6V1X1 whole entry): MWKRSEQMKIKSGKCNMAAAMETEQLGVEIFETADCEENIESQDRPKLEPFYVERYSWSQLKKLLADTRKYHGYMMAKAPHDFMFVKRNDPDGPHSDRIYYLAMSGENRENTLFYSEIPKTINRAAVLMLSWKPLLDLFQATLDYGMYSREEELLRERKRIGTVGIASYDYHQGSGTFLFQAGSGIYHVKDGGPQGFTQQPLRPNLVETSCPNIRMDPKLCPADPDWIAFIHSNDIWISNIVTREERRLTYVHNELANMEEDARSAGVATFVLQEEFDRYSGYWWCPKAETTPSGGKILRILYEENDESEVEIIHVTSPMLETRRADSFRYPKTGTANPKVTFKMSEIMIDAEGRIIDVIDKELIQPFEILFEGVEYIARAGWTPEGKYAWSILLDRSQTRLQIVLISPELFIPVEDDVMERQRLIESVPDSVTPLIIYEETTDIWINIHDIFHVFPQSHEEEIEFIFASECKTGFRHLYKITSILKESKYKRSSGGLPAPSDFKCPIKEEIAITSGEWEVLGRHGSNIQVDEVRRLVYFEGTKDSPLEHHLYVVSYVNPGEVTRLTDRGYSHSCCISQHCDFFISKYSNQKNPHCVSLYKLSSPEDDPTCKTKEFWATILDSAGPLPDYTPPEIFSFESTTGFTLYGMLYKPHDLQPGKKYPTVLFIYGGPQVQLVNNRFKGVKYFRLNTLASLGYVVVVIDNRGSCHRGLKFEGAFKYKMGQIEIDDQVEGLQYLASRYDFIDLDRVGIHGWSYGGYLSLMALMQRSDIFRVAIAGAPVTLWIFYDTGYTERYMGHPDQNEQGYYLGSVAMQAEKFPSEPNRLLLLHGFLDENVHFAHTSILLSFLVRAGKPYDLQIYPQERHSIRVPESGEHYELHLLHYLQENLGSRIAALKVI

pKi [1] | pKi [2] | pKi [3] | pKi [4] | pKi [5] | SMILES
< 4.52 | – | – | – | – | C#C[C@H]1CC[C@@H](C#N)N1C(=O)CN[C@H]1CC[C@H](Oc2ccc(C#N)cn2)CC1 (mixture of isomers)
< 4.52 | < 4.52 | < 4.52 | < 4.52 | < 4.52 | C#C[C@H]1CC[C@@H](C#N)N1C(=O)CNC1(C)CCN(c2ccc(C(=O)O)cn2)CC1
